From patent EP3381908A1, “2-(4-(4-(BROMO-METHOXYBENZAMIDO)BENZYLAMINO)PHENYL)BENZAZOLE DERIVATIVES AND THEIR USE AS ANTI-HEPARANASE” (Leadiant Biosciences SA, priority 2017, dated 2018)
Read-outs that look alike come from different tables or passages of the source.

Assays:
heparanase = target: T1, heparanase (Homo sapiens, UniProt Q9Y251); assay: AGA*IA assay (fondaparinux cleavage, WST-1 colorimetric) for heparanase inhibition; type: biochemical
T1 sequence (Q9Y251 158-543 limits assumed): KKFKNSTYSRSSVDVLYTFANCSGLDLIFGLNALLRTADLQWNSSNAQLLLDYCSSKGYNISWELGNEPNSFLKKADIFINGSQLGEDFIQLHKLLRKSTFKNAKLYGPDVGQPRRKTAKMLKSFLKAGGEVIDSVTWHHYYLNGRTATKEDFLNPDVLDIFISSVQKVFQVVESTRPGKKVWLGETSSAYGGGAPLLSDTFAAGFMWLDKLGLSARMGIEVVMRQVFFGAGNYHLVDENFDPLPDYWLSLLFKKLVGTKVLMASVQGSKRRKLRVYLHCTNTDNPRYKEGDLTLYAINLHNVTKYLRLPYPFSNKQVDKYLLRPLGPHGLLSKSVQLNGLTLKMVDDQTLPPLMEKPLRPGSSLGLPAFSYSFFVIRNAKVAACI
T1 sequence (Q9Y251 36-109 limits assumed): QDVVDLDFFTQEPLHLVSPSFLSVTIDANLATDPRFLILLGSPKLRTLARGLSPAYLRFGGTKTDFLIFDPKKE
Procedure: All compounds were tested in a simple, accurate and robust microplate assay based on the cleavage of the synthetic heparin fragment, the pentasaccharide Fondaparinux (AGA*IA). This assay was originally developed by Hammond and coworkers [Hammond E, Li CP, Ferro V. Development of a colorimetric assay for heparanase activity suitable for kinetic analysis and inhibitor screening. […] Fondaparinux is cleaved by heparanase to generate a reducing disaccharide, which can be quantitatively measured via a colorimetric or a fluorescence assay, the last by the fluorescent sensor polymer-H [Schiemann S, Lühn S, Alban S. Development of both colorimetric and fluorescence heparinase activity assays using fondaparinux as substrate.
The assay measures the appearance of the disaccharide product of heparanase-catalyzed fondaparinux cleavage colorimetrically using the tetrazolium salt WST-1. Assay was essentially performed as described with minor modifications. Briefly, NUNC ELISA 96-well plates were pre-treated with a solution of 4% BSA (bovin serum albumin) in phosphate-buffered saline containing 0.05% Tween 20 (PBST), for 2 h at 37°C, then washed three times with PBST, dried by tapping on paper towel and stored at -20°C. Before use, once again, the plates were washed with PBST.
Then, the absorbance at 560 nm was measured through a microplate reader (Victor 3, Perkin Elmer).
Finally, the measurements were corrected by subtracting both the reagent background and the inner absorbance value of test compound. Table 2. IC50 value in AGA*IA assay, versus heparanase inhibition of selected compounds of present invention.

[1] = tested on: HT1080 (human fibrosarcoma); assay: SRB Cell Cytotoxicity Assay, 72h; type: cell-based; conditions: Conc. 2.5 µM, N.I.: Not Inhibition
Procedure: (§4) SRB Cell Cytotoxicity Assay is an assay based upon the quantitative staining of cellular proteins by sulforhodamine B (SRB). […] Sulforhodamine B is an anionic aminoxanthene dye that forms an electrostatic complex with the basic amino acid residues of proteins under moderately acid conditions, which provides a sensitive linear response.
(§5) Inhibition of cell proliferation was then measured by the classical colorimetric SRB Cell Cytotoxicity assay. Absorbance was measured by spectrophotometer at a wavelength of 510 nm and cell proliferation was determined as percent with respect to control cells (cells treated with the vehicle alone). EC50 values were then determined by GraphPad Prism.

[2] = tested on: U87MG (human glioblastoma astrocytoma); assay: SRB Cell Cytotoxicity Assay, 72h; type: cell-based; conditions: Conc. 2.5 µM, N.I.: Not Inhibition
Procedure: as §4, §5

[3] = tested on: U87MG (human glioblastoma astrocytoma); assay: Matrigel cell invasion assay; type: cell-based
Procedure: (§1) Heparanase inhibitors were then evaluated for their activity on the invasive potential of HT1080 (human fibrosarcoma), U87MG (human glioblastoma astrocytoma) and U2OS (human osteosarcoma) human cell lines, using the Matrigel cell invasion assay which allows to assess the cell invasion ability of malignant and normal cells.
(§2) Invasion assay was performed using BioCoat cell culture inserts (BioCoat 8.0µm PET Membrane 24 Well Permeable Supports, Corning). Filters were coated with 100 µl of 300 µg/ml Matrigel dissolved in coating buffer (0.01M Tris pH 8.0, 0.7% NaCl) (Becton-Dickinson Sciences). DMEM (Dulbecco's Modified Eagle's Medium) containing 5% FBS was added to the lower chambers. Cells were pre-treated with heparanase inhibitors for 24 h, detached and added to the upper chambers in media containing the inhibitors. Cells were allowed to invade for 24 h at 37°C in a CO2 incubator and then unmigrated cells were removed from the upper chamber with a cotton swab. The invading cells were fixed, stained with 0.1% crystal violet for 10 min at room temperature, photographed and counted under inverted microscope.
(§3) Test compounds were analyzed at fixed concentration for several fields, in duplicates. Activity of test compounds was compared to the reference compound. Activity of most interesting compound was confirmed in a second cell invasion assay. Data were expressed as the percent invasion with respect to cell migration through uncoated insert membrane.

[4] = tested on: U2OS (human osteosarcoma); assay: Matrigel cell invasion assay; type: cell-based
Procedure: as §1, §2, §3

[5] = tested on: HT1080 (human fibrosarcoma); assay: Matrigel cell invasion assay; type: cell-based
Procedure: as §1, §2, §3

[6] = tested on: U2OS (human osteosarcoma); assay: SRB Cell Cytotoxicity Assay, 72h; type: cell-based; conditions: Conc. 2.5 µM, N.I.: Not Inhibition
Procedure: as §4, §5

FGF-2 = assay: Real-Time Quantitative PCR of mRNA gene expression in HT1080 cells; conditions: 24 h, Conc 1.0 uM
Procedure: (§6) To evaluate the effect of heparanase inhibitors on the tumor transcription of genes encoding for proangiogenic factors, such as FGF1/2, VEGF, MMP-9, HSPE-1, the relative mRNA levels were analyzed by quantitative Real-Time Quantitative PCR.
(§7) To perform the assay, HT1080 (human fibrosarcoma) cells were cultured in complete medium containing 10%FCS (fetal calf serum). Cells were plated in 24-well plates and treated at fixed concentration (i.e., highest non-toxic concentration) of test compounds. After 24 h, cells were detached, collected and total RNA extracted by RNeasy Mini Kit (QIAGEN). Following reverse transcription step, FGF1/2, VEGF, MMP-9, HSPE-1 mRNA levels, were quantified by qPCR using the advanced Universal SYBR Green Supermix (Bio Rad) and ABI PRISM 7900HT Thermal Cycler System (Perkin Elmer), according to the manufacturer's instructions. […] Relative levels of RNA were calculated using the ddCt method. Standard curve and sample data were run in duplicate.

VEGF = assay: as above; conditions: 24 h, Conc 1.0 uM
Procedure: as §6, §7

MMP-9 = assay: as above; conditions: 24 h, Conc 1.0 uM
Procedure: as §6, §7

FGF-1 = assay: as above; conditions: 24 h, Conc 1.0 uM
Procedure: as §6, §7

[7] = Table 1, fluorinated vs non-fluorinated analogues
[8] = Table 3, fluorinated vs non-fluorinated derivatives, read-out: AGAIA assay IC50

COc1ccc(C(=O)Nc2ccc(CNc3ccc(-c4nc5cc(CC(=O)O)ccc5[nH]4)cc3F)cc2)cc1Br [Compound 10, 2-(2-(4-((4-(3-bromo-4-methoxybenzamido)benzyl)amino)-3-fluorophenyl)-1H-benzo[d]imidazol-5-yl)acetic acid]
IC50 (heparanase; [7]): 2860 nM
IC50 (heparanase; Table 2, class symbols): 1000 to 20000 nM
IC50 (heparanase; [8]): 2860 nM

COc1ccc(C(=O)Nc2ccc(CNc3ccc(-c4nc5cc(CC(=O)NCC(=O)O)ccc5[nH]4)cc3F)cc2)cc1Br [Compound 15, 2-(2-(2-(4-((4-(3-bromo-4-methoxybenzamido)benzyl)amino)-3-fluorophenyl)-1H-benzo[d]imidazol-5-yl)acetamido)acetic acid]
Concentration of test compounds at which the cell growth is inhibited by 50 % HT1080 [1]: N. I.
Concentration of test compounds at which the cell growth is inhibited by 50 % U87MG [2]: N. I.
Invasion Assay U87MG ([3]; Conc. 2.5µM): + (+ : < 50%)
Invasion Assay U2OS ([4]; Conc. 2.5µM): + (+ : < 50%)
Invasion Assay HT1080 ([5]; Conc. 2.5µM): + (+ : < 50%)
Concentration of test compounds at which the cell growth is inhibited by 50 % U2OS [6]: N. I.
IC50 (heparanase; Table 2, class symbols): 500 to 990 nM

COc1ccc(C(=O)Nc2ccc(CNc3ccc(-c4nc5ccccc5[nH]4)cc3F)cc2)cc1Br [Compound 22]
Gene Expression (% mRNA vs. control) FGF-2 (FGF-2): ∼ 71%
Gene Expression (% mRNA vs. control) VEGF (VEGF): ∼ 67%
Invasion Assay U87MG ([3]; Conc. 1.1µM): ++ (++: 50-90%)
Invasion Assay U2OS ([4]; Conc. 1.1µM): ++ (++: 50-90%)
Invasion Assay HT1080 ([5]; Conc. 1.1µM): ++ (++: 50-90%)
Gene Expression (% mRNA vs. control) MMP-9 (MMP-9): ∼ 52%
Gene Expression (% mRNA vs. control) FGF-1 (FGF-1): ∼ 77%

COc1ccc(C(=O)Nc2ccc(CNc3ccc(-c4nc5ccccc5[nH]4)cc3)cc2)cc1Br [SST0408AA1, reference compound]
Gene Expression (% mRNA vs. control) FGF-2 (FGF-2): ∼ 92%
Gene Expression (% mRNA vs. control) VEGF (VEGF): ∼ 72%
Gene Expression (% mRNA vs. control) MMP-9 (MMP-9): ∼ 69%
Gene Expression (% mRNA vs. control) FGF-1 (FGF-1): ∼ 97%

COc1ccc(C(=O)Nc2ccc(CNc3ccc(-c4nc5cc(CC(=O)O)ccc5[nH]4)cc3)cc2)cc1Br [SST0914AA1, 2-(2-(4-((4-(3-bromo-4-methoxybenzamido)benzyl)amino)-phenyl)-1H-benzo[d]imidazol-5-yl)acetic acid, reference compound]
IC50 (heparanase; [7]): > 10000 nM
IC50 (heparanase; [8]): > 10000 nM

COc1ccc(C(=O)Nc2ccc(CNc3ccc(-c4nc5cc(CC(=O)O)ccc5o4)cc3)cc2)cc1Br [SST0915AA1, 2-(2-(4-((4-(3-bromo-4-methoxybenzamido)benzyl)amino)phenyl)benzo[d]oxazol-5-yl)acetic acid, reference compound]
IC50 (heparanase; [7]): > 10000 nM
IC50 (heparanase; [8]): > 10000 nM

Cc1ccc(C(=O)Nc2ccc(S(=O)(=O)O)c3cc(S(=O)(=O)O)cc(S(=O)(=O)O)c23)cc1NC(=O)c1cccc(NC(=O)Nc2cccc(C(=O)Nc3cc(C(=O)Nc4ccc(S(=O)(=O)O)c5cc(S(=O)(=O)O)cc(S(=O)(=O)O)c45)ccc3C)c2)c1 [Suramin, reference compound]
Invasion Assay U87MG ([3]; Conc. 10µM): -
Invasion Assay U2OS ([4]; Conc. 10µM): -
Invasion Assay HT1080 ([5]; Conc. 10µM): + (+ : < 50%)
